The text below walks through data of PMC7952708, “In silico method for selecting residue pairs for single-molecule microscopy and spectroscopy” (Scientific Reports, 2021).

Residue numbers refer to the chain shown, from its start.

Assay in all cases: solution-based ALEX single-molecule FRET titration
In assay [1] the target is T1, OpuAC (substrate-binding domain of OpuA) (Lactococcus lactis, UniProt Q7DAU8, D320C/K453C).
T1 construct: gene busAB
T1 sequence (Q7DAU8 320-573 D320C/K453C): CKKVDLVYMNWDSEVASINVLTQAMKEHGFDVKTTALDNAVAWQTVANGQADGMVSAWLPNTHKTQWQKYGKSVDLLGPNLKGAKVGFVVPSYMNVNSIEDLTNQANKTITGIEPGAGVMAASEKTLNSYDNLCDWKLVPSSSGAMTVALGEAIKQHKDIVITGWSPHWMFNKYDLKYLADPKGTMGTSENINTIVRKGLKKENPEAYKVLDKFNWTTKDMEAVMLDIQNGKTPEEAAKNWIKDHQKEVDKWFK

The target in assay [2] is T2, OpuAC (substrate-binding domain of OpuA) (Lactococcus lactis, UniProt Q7DAU8, K566C/N414C).
T2 construct: gene busAB
T2 sequence (Q7DAU8 320-573 N414C/K566C): T1 sequence (Q7DAU8 320-573 D320C/K453C) with C1D, N95C, C134K, K247C

Assay [3] concerns the target T3, OpuAC (substrate-binding domain of OpuA) (Lactococcus lactis, UniProt Q7DAU8, K521C/T504C).
T3 construct: gene busAB
T3 sequence (Q7DAU8 320-573 T504C/K521C): T1 sequence (Q7DAU8 320-573 D320C/K453C) with C1D, C134K, T185C, K202C

One may read the Kd as a measure of binding affinity in units of concentration.

Regarding `C[N+](C)(C)CC(=O)[O-]` [glycine betaine], the dissociation constant Kd in assay [1] was 1 to 4 µM; in assay [2], 1 to 4 µM; in assay [3], 38 µM.
